Data published in patent US4008219A, “4-Benzazonine derivatives and process for preparation thereof” (Nihon Iyakuhin Kogyo Co., Ltd., priority 1973, dated 1977).

How the values were obtained:
mice of the ddN-series [1] = assay: Analgesic test, Heat Stimulus Method (Hot Plate Method); format: in vivo, mouse; parameters: reference not given here; conditions: hypodermic injection, comparative value, scale not given
Description: (§1) Results of comparative tests where the medicinal effects of compounds of this invention were compared with those of known compounds such as pentazocine and codeine phosphate by employing mice and guinea pigs as the test animals are shown in the following Tables I and II.
Heat Stimulus Method^2)
(§2) Tested Animal: mice of the ddN-series, .male., 20 ± 1 experimental
(§3) Conditions: temperature of 24 ± 1° C., relative humidity of 65
^2) G. Woolfe and A. D. Mac Donald; Journal of Pharmacology and […]

Acute Toxicity = conditions: in vivo; mouse, intravenous injection
Description: as §2, §3

mice of the ddN-series [2] = assay: Analgesic test, Chemical Stimulus Method (Writhing Method); format: in vivo, mouse; parameters: scale not given here; conditions: interabdominal injection, comparative value, scale not given
Description: as §1
Chemical Stimulus Method^1)
(interabdominal injection)
as §2, §3
^1) R. Koster, M. Anderson and E. J. De Beer, Federation Proceedings, […]

mice of the ddN-series [3] = assay: Analgesic test, Pressure Stimulus Method; format: in vivo, mouse; conditions: hypodermic injection, comparative value, pentazocine 1.0
Description: as §1
Pressure Stimulus Method^3)
R (hypodermic injection)
as §2, §3
^3) A. F. Green, P. A. Yound and E. I. Godfrey; British Journal of
Pharmacology and Chemotherapy, 6, 572 (1951)

guinea pigs [4] = assay: Antitussive effect, Mechanical Stimulus Method; format: in vivo, guinea pig; conditions: for ED50: Cavia porcellus, swine hairs inserted into the trachea; for Effect Ratio to Codeine Phosphate, Mechanical Stimulus Method: codeine phosphate = 100
From the text: as §1
(§4) Comparison of Antitusive Effects
Mechanical Stimulus Method^1)
1) Takagi et al modification [Journal of the Pharmaceutical Society of
Japan, 80, 1497 (1960)] of the test method of H. Konzett and E. Rothlin
[Experientia, 10, 472 (1954)], in which urethane was hypodermically
injected (15 mg/Kg) into guinea pigs and swine hairs were inserted into
the trachea to impart stimulus.

guinea pigs [5] = assay: Antitussive effect, Chemical Stimulus Method (SO2 gas); format: in vivo, guinea pig; conditions: for ED50: Cavia porcellus, sc, 0.5 h, read-out: ED50, Chemical Stimulus Method (antitussive); for Effect Ratio to Codeine Phosphate, Chemical Stimulus Method: codeine phosphate = 100
From the text: as §1, §4
2) Takagi et al modification [Journal of Pharmaceutical Society of Japan,
80, 1497 (1960)] of the test method of H. Friebel, C. Reichle and A. V.
Gravenitz [Archiv Fur experimentalle Phathologie und Pharmakologie,
Naunyn-Schmiede-berg's, 224,384 (1955)], in which the test compound was
hypodermically injected into guinea pigs, 30 minutes after the injection
the quinea pigs were put into a desiccator filled with SO2 gas and
kept in the desiccator for 1 minute, then the guinea pigs were put into
another vessel and the degree of coughing was examined.

[6] = guinea pigs, hypodermic injection, SO2 gas, 1 minute, 30 minutes after injection

SMILES	Heat Stimulus Method (Hot Plate Method) (mice of the ddN-series [1])	LD50 (Acute Toxicity) [mg/kg]	Chemical Stimulus Method (Writhing Method) (mice of the ddN-series [2])	Pressure Stimulus Method (mice of the ddN-series [3])	ED50 (guinea pigs [4]) [mg/kg]	Effect Ratio to Codeine Phosphate, Mechanical Stimulus Method (guinea pigs [4])	ED50 (guinea pigs [5]; [6]) [mg/kg]	Effect Ratio to Codeine Phosphate, Chemical Stimulus Method (guinea pigs [5]; guinea pigs, SO2 gas)	ED50 (guinea pigs [5]) [mg/kg]
CCN1CCC2(C)c3cc(OC)ccc3CC(C1)C2C (stereo not drawn)	2.0	100	0.8						
COc1ccc2c(c1)C1(C)CCN(CCc3ccccc3)CC(C1)C2O (stereo not drawn)	2.2	45	1.6	1.8					
C=CCN1CCC2(C)CC(C1)C(O)c1ccc(OC)cc12 (stereo not drawn)	1.6	61	1.4						
CCN1CCC2(C)CC(Cc3ccc(OC)cc32)C1 (stereo not drawn) [R=CH3O, R1=CH3, R2=H, CH2R3=CH2CH3, R4=H]	2.0	120	0.8						
COc1ccc2c(c1)C1(C)CCN(C)CC(C2)C1 (stereo not drawn) [R=CH3O, R1=CH3, R2=H, CH2R3=CH3, R4=H]	2.0	120	0.8						
COc1ccc2c(c1)C1(C)CCN(C)CC(C1)C2O (stereo not drawn) [R=CH3O, R1=CH3, R2=H, CH2R3=CH3, R4=OH, 1,4-dimethyl-10-methoxy-2,3,4,5,6,7-hexahydro-1,6-methano-1H-4-benzazonin-7-ol]	5.0	72	1.5	1.2	13.7	105.5	6.06	218.8	
COc1ccc2c(c1)C1(C)CCN(CCc3ccccc3)CC(C2)C1 (stereo not drawn) [R=CH3O, R1=CH3, R2=H, CH2R3=drawing 44, R4=H]	2.0	48	1.5						
CC1C2CN(C)CCC1(C)c1ccccc1C2O (stereo not drawn) [R=H, R1=CH3, R2=CH3, CH2R3=CH3, R4=OH]	2.0	30	1.6	1.5					
C=CCN1CCC2(C)CC(C1)C(O)c1ccccc12 (stereo not drawn) [R=H, R1=CH3, R2=H, CH2R3=CH2CHCH2, R4=OH]	1.5	55	1.8	2.0					
CN1CCC2(C)CC(C1)C(O)c1ccccc12 (stereo not drawn) [R=H, R1=CH3, R2=H, CH2R3=CH3, R4=OH, 1,4-dimethyl-2,3,4,5,6,7-hexahydro-1,6-methano-1H-4-benzazonin-7-ol]	1.4	70	0.7	1.2	4.42	326.9	1.64	800.7	
CC(C)=CCN1CCC2(C)CC(C1)C(O)c1ccccc12 (stereo not drawn) [R=H, R1=CH3, R2=H, CH2R3=drawing 38, R4=OH]	1.5	25	1.5	1.6					
C=CCN1CCC2CC(Cc3ccccc32)C1 (stereo not drawn) [R=H, R1=H, R2=H, CH2R3=CH2CHCH2, R4=H, 4-allyl-2,3,4,5,6,7-hexahydro-1,6-methano-1H-4-benzazonine]	5.0	45	1.4	1.5	7.42	195.0	12.7	104.7	
CN1CCC2CC(Cc3ccccc32)C1 (stereo not drawn) [R=H, R1=H, R2=H, CH2R3=CH3, R4=H, 4-methyl-2,3,4,5,6,7-hexahydro-1,6-methano-1H-4-benzazonine]	0.6	20	2.5						
CN1CCC2CC(C1)C(O)c1ccccc12 (stereo not drawn) [R=H, R1=H, R2=H, CH2R3=CH3, R4=OH, 4-methyl-2,3,4,5,6,7-hexahydro-1,6-methano-1H-4-benzazonin-7-ol]					9.21	157.1	6.58	201.4	
CC(C)=CCN1CCC2CC(C1)C(O)c1ccccc12 (stereo not drawn) [R=H, R1=H, R2=H, CH2R3=drawing 36, R4=OH]	1.2	60	1.2	1.4					
OC1c2ccccc2C2CCN(CCc3ccccc3)CC1C2 (stereo not drawn) [R=H, R1=H, R2=H, CH2R3=drawing 37, R4=OH]	4.5	45	1.8	2.0					
CC(C)=CCN1CCC2CC(Cc3ccccc32)C1 (stereo not drawn) [R=H, R1=H, R2=H, CH2R3=drawing 40, R4=H]	1.5	65	1.0	1.4					
c1ccc(CCN2CCC3CC(Cc4ccccc43)C2)cc1 (stereo not drawn) [R=H, R1=H, R2=H, CH2R3=drawing 41, R4=H]	5.0	35	0.8	2.0					
c1ccc(CN2CCC3CC(Cc4ccccc43)C2)cc1 (stereo not drawn) [R=H, R1=H, R2=H, CH2R3=drawing 42, R4=H]	3.0	120	1.0						
CCN1CCC2(C)CC(Cc3ccc(O)cc32)C1 (stereo not drawn) [R=HO, R1=CH3, R2=H, CH2R3=CH2CH3, R4=H]	2.0	80	1.5						
CN1CCC2(C)CC(Cc3ccc(O)cc32)C1 (stereo not drawn) [R=HO, R1=CH3, R2=H, CH2R3=CH3, R4=H, 1,4-dimethyl-10-hydroxy-2,3,4,5,6,7-hexahydro-1,6-methano-1H-4-benzazonine]	2.0	75	1.5						
CC(C)=CCN1CCC2(C)CC(Cc3ccc(O)cc32)C1 (stereo not drawn) [R=HO, R1=CH3, R2=H, CH2R3=drawing 43, R4=H]	1.5	40	1.0						
CC(C)CCN1CCC2(C)CC(Cc3ccc(O)cc32)C1 (stereo not drawn) [R=HO, R1=CH3, R2=H, CH2R3=drawing 45, R4=H]	1.5	40	1.0						
COc1ccc2c3c1O[C@H]1[C@@H](O)C=C[C@H]4[C@@H](C2)N(C)CC[C@@]341 [codeine phosphate, reference compound]					14.5		13.3		
COc1ccc2c3c1O[C@H]1[C@@H](O)CC[C@H]4[C@@H](C2)N(C)CC[C@@]341 [dihydrocodeine phosphate, reference compound]					4.65				2.65
CC(C)=CCN1CCC2(C)c3cc(O)ccc3CC1C2C (stereo not drawn) [pentazocine, 1,2,3,4,5,6-hexahydro-3-(3-methyl-2-butenyl)-6, 11-dimethyl-8-hydroxy-2,6-methano-3-benzazonine, reference compound]		25		1.0					
